{"source": "paper PMC3509626", "about": "“Antifungal Activity of (KW)n or (RW)n Peptide against Fusarium solani and Fusarium oxysporum” (International Journal of Molecular Sciences, 2012)", "type_in_all_cases": "cell-based", "key": {"[1]": {"tested_on": "Fusarium oxysporum (KCTC 6076)", "conditions": "KCTC 6076, 3 h", "experimental": "(§1) Rink amide 4-methylbenzhydrylamine resin, fluoren-9-ylmethoxycarbonyl (Fmoc) amino acids, and other reagents for peptide synthesis were purchased from Calibiochem-Novabiochem (La Jolla, CA, USA). For the quantitative antifungal assay and fungicidal activity assay, the following fungal strains were obtained from the Korea Collection for Type Cultures (KCTC): F. solani (KCTC 6326) and F. oxysporum (KCTC 6076). Fungal cells were grown on PDA (potato dextrose agar) plate and subcultured for 2–3 weeks.\n(§2) The spore suspension at a concentration of 5 × 10^4 spores/mL (80 μL) was transferred to a 96-well microtiter plate along with 20 μL of (KW)n or (RW)n peptides (n = 3, 4, and 5), melittin, or media to give final peptide concentrations of 4–32 μM. Plates were incubated for 3 h before the addition of 10 μL of 3-(4,5-dimethylthiazol-2-yl)-2,5-diphenyltetrazolium bromide (MTT; 5 mg/mL; Sigma). Plates were then incubated again for 16 h at room temperature, followed by the addition of 100 μL of MTT solvent (0.1 N HCl in anhydrous isopropyl alcohol). Presence of MTT/formazan was monitored spectrophotometrically by measuring the absorbance at 570 nm and then subtracting the background absorbance at 690 nm using a Versa-Max microplate Elisa reader (Molecular Devices, Sunnyvale, CA, USA). Each measurement was conducted in triplicate."}, "[2]": {"tested_on": "Fusarium solani (KCTC 6326)", "conditions": "KCTC 6326, 3 h", "experimental": "as §1, §2"}, "[3]": {"tested_on": "Fusarium oxysporum (KCTC 6076)", "conditions": "F. oxysporum, peptide at 64 μM, 24 h, 25 °C", "experimental": "as §1\n(§3) Fungal fragments, precultured in mycelial growth medium, were placed in the center of PDA plates, after which the cultures were incubated for 96 h at 25 °C in the dark. After incubation, spores were isolated from cultures growing in half-strength PDA. Spore concentrations were then adjusted to 5 × 10^4 spores/mL in half-strength PDA, after which 80 μL was added to the wells of sterile 96-well flat-bottomed microtiter plates along with 20 μL of peptide or media to give final concentrations of 1–64 μM. Several wells were kept untreated as a control to monitor fungal growth. Plates were incubated in the dark at 25 °C for 24 h before hyphal growth was determined by measuring optical density at 595 nm using a microtiter plate Elisa reader (Molecular Devices, Sunnyvale, CA, USA). Each test was performed in triplicate. Percentages of inhibition were then calculated (Figure 1) (0% inhibition indicates growth equal to control sample (only media)). The lowest concentration of peptide inhibiting fungal growth was monitored microscopically with an inverted light microscope (IX71, Olympus, Tokyo, Japan)."}, "[4]": {"tested_on": "Fusarium solani (KCTC 6326)", "conditions": "for growth inhibition (conidial germination and hyphal growth): F. solani, peptide at 64 μM, 24 h, 25 °C; for concentration at which antifungal effects were exhibited (below MIC): KCTC 6326, 24 h", "experimental": "as §1, §3"}}, "note": "Read-outs that look alike come from different tables or passages of the source. Ends that are not written are not given here."}
{"compound": "N=C(N)NCCC[C@H](NC(=O)[C@H](Cc1c[nH]c2ccccc12)NC(=O)[C@H](CCCNC(=N)N)NC(=O)[C@H](Cc1c[nH]c2ccccc12)NC(=O)[C@H](CCCNC(=N)N)NC(=O)[C@H](Cc1c[nH]c2ccccc12)NC(=O)[C@H](CCCNC(=N)N)NC(=O)[C@H](Cc1c[nH]c2ccccc12)NC(=O)[C@@H](N)CCCNC(=N)N)C(=O)N[C@@H](Cc1c[nH]c2ccccc12)C(N)=O", "note": "[(RW)5, RWRWRWRWRW-NH2]", "values": [{"measurement": "cells killed", "setting": "[1]", "value": 79, "unit": "%"}, {"measurement": "cells killed", "setting": "[2]", "value": 75, "unit": "%"}]}
{"compound": "KWKW-NH2 [(KW)2, tetrameric Lys-Trp repeat peptide amide]", "values": [{"measurement": "growth inhibition (conidial germination and hyphal growth)", "setting": "[3]", "value": "did not inhibit growth"}, {"measurement": "growth inhibition (conidial germination and hyphal growth)", "setting": "[3]; listed as (KW)2-NH2", "value": "non-inhibition"}, {"measurement": "growth inhibition (conidial germination and hyphal growth)", "setting": "[4]", "value": "did not inhibit growth"}, {"measurement": "growth inhibition (conidial germination and hyphal growth)", "setting": "[4]; listed as (KW)2-NH2", "value": "non-inhibition"}]}
{"compound": "KWKWKWKW-NH2 [(KW)4, KWKWKWKW-NH2]", "values": [{"measurement": "concentration at which antifungal effects were exhibited (below MIC)", "setting": "[4]", "value": 4, "unit": "µM"}, {"measurement": "cells killed", "setting": "[1]", "value": 74, "unit": "%"}, {"measurement": "cells killed", "setting": "[2]", "value": 68, "unit": "%"}]}
{"compound": "KWKWKWKWKW-NH2 [(KW)5, KWKWKWKWKW-NH2]", "values": [{"measurement": "cells killed", "setting": "[1]", "value": 76, "unit": "%"}, {"measurement": "cells killed", "setting": "[2]", "value": 72, "unit": "%"}]}
{"compound": "RWRW-NH2 [(RW)2, tetrameric Arg-Trp repeat peptide amide]", "values": [{"measurement": "growth inhibition (conidial germination and hyphal growth)", "setting": "[3]", "value": "did not inhibit growth"}, {"measurement": "growth inhibition (conidial germination and hyphal growth)", "setting": "[3]; listed as (RW)2-NH2", "value": "non-inhibition"}, {"measurement": "growth inhibition (conidial germination and hyphal growth)", "setting": "[4]", "value": "did not inhibit growth"}, {"measurement": "growth inhibition (conidial germination and hyphal growth)", "setting": "[4]; listed as (RW)2-NH2", "value": "non-inhibition"}]}
{"compound": "RWRWRWRW-NH2 [(RW)4, RWRWRWRW-NH2]", "values": [{"measurement": "concentration at which antifungal effects were exhibited (below MIC)", "setting": "[4]", "value": 4, "unit": "µM"}, {"measurement": "cells killed", "setting": "[1]", "value": 76, "unit": "%"}, {"measurement": "cells killed", "setting": "[2]", "value": 69, "unit": "%"}]}
